Measured values as given in patent EP0970046B1, “N-HYDROXY-2-(ALKYL, ARYL, OR HETEROARYL SULFANYL, SULFINYL OR SULFONYL)-3-SUBSTITUTED ALKYL, ARYL OR HETEROARYLAMIDES AS MATRIX METALLOPROTEINASE INHIBITORS” (Wyeth Holdings Corporation, priority 1997, dated 1998).
Where two headings read alike, the source gives them in different places.

Assays:
Format in all cases: biochemical
MMP 1 = molecular target: T1, MMP 1 (Homo sapiens, UniProt P03956); assay: In Vitro Collagenase Assay; settings: human recombinant fibroblast collagenase; for IC50: read-out: MMP 1 IC 50; for inhibition at 1 µM: read-out: MMP 1 % inhibition at 1 micromolar
T1 construct: human recombinant fibroblast collagenase (truncated, mw= 18,828, WAR, Radnor)
T1 sequence (P03956 100-269 limits assumed): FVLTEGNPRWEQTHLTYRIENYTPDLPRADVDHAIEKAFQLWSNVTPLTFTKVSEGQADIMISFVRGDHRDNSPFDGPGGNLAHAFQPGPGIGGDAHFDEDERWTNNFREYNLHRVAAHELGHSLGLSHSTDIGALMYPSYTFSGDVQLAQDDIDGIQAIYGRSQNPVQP
Summary of the method: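 Collagenase (5 nM final) cleaves the quenched fluorogenic peptide Dnp-Pro-Cha-Gly-Cys(Me)-His-Ala-Lys(NMa)-NH2 (10 µM final) in HCBC buffer. Solvent is below 1.0%, and the reaction is started with substrate. Rate is taken from the fluorescence slope (r^2 >0.85), and drug-treated rates are compared with control by Dunnett's test.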

MMP 9 = molecular target: T2, MMP 9 (Homo sapiens, UniProt P14780); assay: In Vitro Gelatinase Assay; settings: human neutrophil gelatinase B; for IC50: read-out: MMP 9 IC 50; for inhibition at 1 µM: read-out: MMP 9 % inhibition at 1 micromolar
T2 construct: from tissue; host or cells: human neutrophils
T2 sequence (P14780 94-707): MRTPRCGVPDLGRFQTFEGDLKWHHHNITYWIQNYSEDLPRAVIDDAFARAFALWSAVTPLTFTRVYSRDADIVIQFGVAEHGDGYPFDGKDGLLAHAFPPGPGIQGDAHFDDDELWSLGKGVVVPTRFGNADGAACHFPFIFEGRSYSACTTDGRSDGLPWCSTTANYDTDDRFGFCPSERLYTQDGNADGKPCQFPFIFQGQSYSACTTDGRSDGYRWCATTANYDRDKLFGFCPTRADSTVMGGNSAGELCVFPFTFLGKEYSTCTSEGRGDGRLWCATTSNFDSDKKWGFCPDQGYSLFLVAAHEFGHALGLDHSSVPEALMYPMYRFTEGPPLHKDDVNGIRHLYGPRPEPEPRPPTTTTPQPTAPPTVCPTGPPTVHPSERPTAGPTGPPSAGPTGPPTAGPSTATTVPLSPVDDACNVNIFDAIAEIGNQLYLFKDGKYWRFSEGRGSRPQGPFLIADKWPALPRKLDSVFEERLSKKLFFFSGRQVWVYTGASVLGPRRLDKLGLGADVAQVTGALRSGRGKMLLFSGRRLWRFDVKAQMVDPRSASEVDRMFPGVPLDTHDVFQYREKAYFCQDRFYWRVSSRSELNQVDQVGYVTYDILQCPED
Summary of the method: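 Human MMP-9 cleaves thiopeptide Ac-Pro-Leu-Gly(2-mercapto-4-methyl-pentanoyl)-Leu-Gly-OEt, with the released thiol reacting with DTNB. Substrate and DTNB were diluted together to 1 mM in 50 mM HEPES pH 7.5, 5 mM CaCl2. Rate came from the OD405 slope (r^2 >0.85), compared with control by Dunnett's test.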

MMP 13 = MMP 13 (Homo sapiens, UniProt P45452); assay: MMP 13 inhibition (IC50 / manual assay; method not described); settings: for inhibition at 1 µM: read-out: MMP 13 % inhibition at 1 micromolar
TACE = molecular target: T3, TACE (Homo sapiens, UniProt P78536); assay: Procedure for Measuring TACE Inhibition; settings: for inhibition at 1 µM: read-out: TACE % inhibition at 1 micromolar; for IC50: read-out: TACE IC 50
T3 construct: purchased Immunex
T3 sequence (P78536 215-824): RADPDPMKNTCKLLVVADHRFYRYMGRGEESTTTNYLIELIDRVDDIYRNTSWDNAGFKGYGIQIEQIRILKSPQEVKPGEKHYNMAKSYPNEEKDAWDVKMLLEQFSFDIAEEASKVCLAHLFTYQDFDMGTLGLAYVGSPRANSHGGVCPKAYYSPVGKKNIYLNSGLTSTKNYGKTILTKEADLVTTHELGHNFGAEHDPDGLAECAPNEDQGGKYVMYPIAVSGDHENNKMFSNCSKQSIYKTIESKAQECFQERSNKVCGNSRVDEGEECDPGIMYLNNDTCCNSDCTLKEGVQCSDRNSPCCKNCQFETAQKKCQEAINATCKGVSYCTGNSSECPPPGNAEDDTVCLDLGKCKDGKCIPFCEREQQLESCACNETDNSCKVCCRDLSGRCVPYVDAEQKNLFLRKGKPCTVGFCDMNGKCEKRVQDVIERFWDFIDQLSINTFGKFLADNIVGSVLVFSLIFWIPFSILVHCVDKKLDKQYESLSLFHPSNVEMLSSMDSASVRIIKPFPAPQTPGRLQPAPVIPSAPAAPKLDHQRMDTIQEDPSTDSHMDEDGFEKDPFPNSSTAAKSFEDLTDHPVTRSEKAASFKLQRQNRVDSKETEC
Summary of the method: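 Single-concentration screen: test compound at 1 µM final, 10-min room-temperature preincubation with 1 µg/mL protease in Tris pH 7.4 buffer containing glycerol. Initial rate from linear fluorescence increase (340/420 nm) over 10 min after adding 100 µM peptidyl substrate; significance versus control rate by Dunnett's test.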

Structure (SMILES) | IC50 (MMP 1) [nM] | IC50 (MMP 9) [nM] | IC50 (MMP 13; read-out: MMP 13 IC 50) [nM] | inhibition at 1 µM (TACE) [%] | IC50 (TACE) [nM] | other results
COc1ccc(S(=O)(=O)C(Cc2cccnc2)(CC2CCCCC2)C(=O)NO)cc1 (stereo not drawn) [Example 65, 3-Cyclohexyl-N-hydroxy-2-(4-methoxy-benzenesulfonyl)-2-pyridin-3-ylmethyl-propionamide] | 1000 | 63 | 13 | 42.2 | – | –
COc1ccc(S(=O)(=O)C2(C(=O)NO)CCN(Cc3ccccc3)CC2)cc1 [Example 83, 1-Benzyl-4-(4-methoxy-benzenesulfonyl)-piperidine-4-carboxylic Acid hydroxyamide] | 492 | 10.2 | 2 | – | 229 | –
Cc1occc1S(=O)(=O)C(C)(Cc1ccccc1)C(=O)NO (stereo not drawn) [Example 43, 2-Methyl-2-(2-methyl-furan-3-sulfonyl)-3-phenyl-propionic acid hydroxamide] | – | – | – | 46.6 | – | inhibition at 1 µM (MMP 1; 1 micromolar): 66.1%; inhibition at 1 µM (MMP 9; 1 micromolar): 34.7%; inhibition at 1 µM (MMP 13): 55.5%
COc1ccc(CCN2CCC(C(=O)NO)(S(=O)(=O)c3ccc(OC)cc3)CC2)cc1 [Example 102, 4-(4-methoxy-benzenesulfonyl)-1-[2-(4-methoxyphenyl)-ethyl]-piperidine-4-carboxylic acid hydroxyamide] | 662 | 33.7 | – | 53 | – | IC50 (MMP 13): 1.9 nM
COc1ccc(S(=O)(=O)C(C)(Cc2cccc(OCCN3CCOCC3)c2)C(=O)NO)cc1 (stereo not drawn) [Example 30, N-Hydroxy-2-(4-methoxy-benzenesulfonyl)-2-methyl-3-[3-(2-morpholin-1-yl-ethoxy)-phenyl]-propionamide] | 397 | 8.1 | 5.7 | 25.2 | – | –
COc1ccc(S(=O)(=O)C2(C(=O)NO)CCN(CCOc3ccccc3)CC2)cc1 [Example 107, 4-(4-methoxy-benzenesulfonyl)-1-(2-phenoxy-ethyl)-piperidine-4-carboxylic acid hydroxyamide] | 629 | 26.8 | 2.5 | – | 293 | –
COc1ccc(S(=O)(=O)C(CCCc2ccccc2)(CCCc2ccccc2)C(=O)NO)cc1 [Example 57, 2-(4-methoxy-benzenesulfonyl)-5-phenyl-2-(3-phenyl-propyl)-pentanoic acid hydroxyamide] | 258 | 332 | 191 | 16.6 | – | –
C#CCC(Cc1cccnc1)(C(=O)NO)S(=O)(=O)c1ccc(OC)cc1 (stereo not drawn) [Example 75, 2-(4-Methoxy-benzenesulfonyl)-2-pyridin-3-ylmethyl-pent-4-ynoic acid hydroxyamide] | 672 | 83.4 | 32.7 | 23.8 | – | –
COc1ccc(S(=O)(=O)C(C)(Cc2cccc(OCCN3CCCCC3)c2)C(=O)NO)cc1 (stereo not drawn) [Example 22, N-Hydroxy-2-(4-methoxy-benzenesulfonyl)-2-methyl-3-[3-(2-piperidin-1-yl-ethoxy)-phenyl]-propionamide] | 219 | 3.2 | 2.5 | 30 | – | –
COc1ccc(S(=O)(=O)C2(C(=O)NO)CCN(Cc3cccc(OC)c3)CC2)cc1 [Example 84, 4-(4-methoxy-benzenesulfonyl)-1-(3-methoxy-benzyl)-piperidine-4-carboxylic acid hydroxyamide] | 519 | 8.8 | 2 | – | 213 | –
CCCCCCCCS(=O)(=O)C(Cc1ccc(OCCN2CCCCC2)cc1)C(=O)NO (stereo not drawn) [Example 46, 2-(octane-1-sulfonyl)-3-[4-(2-piperidin-yl-ethoxy)-phenyl]propionic acid hydroxamide] | – | – | – | – | – | MMP 1 % inhibition at 1 micromolar (MMP 1; 1 micromolar): 78.9%; MMP 9 % inhibition at 1 micromolar (MMP 9; 1 micromolar): 79.12%; MMP 13 % inhibition at 1 micromolar (MMP 13; 1 micromolar): 84.7%; TACE % inhibition at 1 micromolar (TACE; 1 micromolar): 1.4%

Continued, in another order:

IC50 (MMP 1) [nM] | IC50 (MMP 9) [nM] | IC50 (MMP 13; read-out: MMP 13 IC 50) [nM] | inhibition at 1 µM (TACE) [%] | IC50 (TACE) [nM] | Structure (SMILES) | other results
267 | 21.4 | 15.6 | 40.4 | – | COc1ccc([S+]([O-])C(C)(CC=C(C)C)C(=O)NO)cc1 (stereo not drawn) [Example 6, 2-(4-Methoxy-benzenesulfinyl)-2,5-dimethyl-hex-4-enoic acid hydroxyamide] | –
371 | – | – | 21 | – | COc1ccc(SC(C(=O)NO)C(C)C)cc1 (stereo not drawn) [Example 4, N-Hydroxy-2-(4-methoxy-phenylsulfanyl)-3-methyl-butyramide] | inhibition at 1 µM (MMP 9; 1 micromolar): 22.2%; inhibition at 1 µM (MMP 13): 17.1%
– | – | – | – | 191 | CCCCCC(Sc1ccc(OC)cc1)C(=O)NO (stereo not drawn) [Example 80, 2-(4-methoxy-phenylsulfanyl)-heptanoic acid hydroxyamide] | inhibition at 1 µM (MMP 1; 1 micromolar): 22.1%; inhibition at 1 µM (MMP 9; 1 micromolar): 26%; inhibition at 1 µM (MMP 13): 63.6%
239 | 11 | 14 | – | 626 | COc1ccc(S(=O)(=O)C(C)(CC=C(C)C)C(=O)NO)cc1 (stereo not drawn) [Example 13, 2-(4-Methoxy-benzenesulfonyl)-2,5-dimethyl-hex-4-enoic acid hydroxyamide] | –
325 | 9 | 24 | – | 180 | COc1ccc(S(=O)(=O)C(C)(CC2CCCCC2)C(=O)NO)cc1 (stereo not drawn) [Example 16, 3-Cyclohexyl-N-hydroxy-2-(4-methoxy-benzenesulfonyl)-2-methyl-propionamide] | –
117 | 11 | 1 | 51.6 | – | CC#CCC(CC#CC)(C(=O)NO)S(=O)(=O)c1ccc(OC)cc1 [Example 72, 2-(4-Methoxy-benzenesulfonyl)-2-but-2-ynyl-hex-4-ynoic acid hydroxyamide] | –
299 | 16 | – | 65 | – | COc1ccc(S(=O)(=O)C(C)(CC=Cc2ccccc2)C(=O)NO)cc1 (stereo not drawn) [Example 56, 2-(4-methoxy-benzenesulfonyl)-2-methyl-5-phenyl-pent-4-enoic acid hydroxyamide] | IC50 (MMP 13): 12 nM
